Experimental data from patent publication US20250074946A1, “USE OF SE-DR AFFINITY PEPTIDE IN PREPARING DRUG FOR TREATING RHEUMATIC DISEASE” (HEBEI FITNESS BIOTECHNOLOGY CO., LTD., priority 2021, published 2025).
Where no end group is shown, it is not given here.

Key:
PBMC = PBMC stimulation test, IL-6 in supernatant by ELISA; assay type: cell-based, human; details: PBMC 1×10^6 cell/ml, peptide 10 μg/ml, 5 days of culture
In short: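 Human PBMC isolated from blood by Ficoll density centrifugation, seeded at 1×10^6 cell/ml in 1640 complete medium with peptide at final 10 μg/ml. Cultured 5 days; IL-6 in supernatant measured by ELISA.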

CIA rats [1] = assay: CIA rat model: inflammation score AUC and peripheral blood T-cell subtypes (Example 3); assay type: in vivo; details: 0.2 mmol
Description: Collagen-induced arthritis (CIA) model was established by intradermal injection of the emulsion formulated using type II bovine collagen (CII) together with incomplete Freund's adjuvant (IFA) into the tail head of a female Lewis rat. After the model establishment, the morphological changes of rats' four paws were examined every day. […] Except for the model group, the dosage of polypeptide was all set as 0.2 mmol. A control group was also set up, in which the drug was injected into the tail vein once every other day for […]. The area under the curve (AUC) of the inflammation score was used for the efficacy analysis from the day the rats were enrolled, once every other day, until the end of administration.

[2] = system: immune system of healthy rats; assay: Immune indicators of SD rats after one month of administration (Example 4); assay type: in vivo, rat; details: once a day for 4 weeks, end of administration
Description: SD rats were used to investigate the effects of the SE-DR affinity peptides on the immune indicators of the rats after continuous administration for one month. […] At the end of administration, analysis was conducted on the serum anti-FNS007 antibodies, different types of serum immunoglobulins, the serum complement, the peripheral blood T lymphocyte and the serum cytokines.

[3] = system: immune system of healthy monkeys; assay: Immune indicators of cynomolgus monkeys after one month of administration (Example 5); assay type: in vivo, cynomolgus monkey; details: once a day for 4 weeks, end of administration
From the text: Cynomolgus monkeys were used to investigate the effects of the SE-DR affinity peptide on the immune indicators of cynomolgus monkeys after continuous administration for one month. […] At the end of administration, the immune indicators, including the serum anti-FNS007 antibodies, the immunoglobulins of different serotypes, the serum complement, the peripheral blood T lymphocyte and the serum cytokines, were observed.

CIA rats [4] = assay type: in vivo, rat
From the text: Female Lewis rats were used to establish CIA model. Methods: The rats were immunized by intradermal injection with the emulsion prepared by bovine C II and IFA at the tail head. After 7 days, the rats were boosted once with the same method. Thereafter, the morphological changes of the four paws of the rats were examined every day. […] Another 8 female Lewis rats were not subjected to model establishment and set as the control group. PBS was administrated to both the model group and the control group. […] The inflammation scores of the four paws of the rats in each group were evaluated during the administration (once every other day), and the area under the curve (AUC) of the inflammation score was calculated during the administration. During drug discontinuation, the inflammation scores of the four paws of the rats in each group were continuously evaluated (once every other day), and the rats were sacrificed on day 22 after drug discontinuation. HE staining was performed on the ankle joint for tissue injury evaluation. The specific scoring criteria were as follows: 0=normal synovial tissue; 1=synovial hyperplasia and inflammatory cell infiltration; 2=pannus formation and cartilage erosion; 3=destruction of most of the cartilage with subchondral bone erosion; 4=loss of joint integrity, ankylosis.

[5] = system: CIA rats with latent tuberculosis infection
[6] = peripheral blood, […] after end of administration, flow cytometry

In the case of FKGEQAGAGE [APL2], the “IL-6 levels in the supernatant” value (PBMC) is reported as 2.3 ng/mL, the “Inflammation score and area under the time curve (AUC)” value (CIA rats [1]; female Lewis CIA rats, tail vein once every other day for 15 days) is reported as 52.37 ± 33.69 and the “Th1 (%)” value (CIA rats [1]; [6]) is reported as 0.16 ± 0.09 %. The “Th2 (%)” value (CIA rats [1]; [6]) was 4.53 ± 0.50 %, the “Th17 (%)” value (CIA rats [1]; [6]) was 0.87 ± 0.09 % and the “Treg (%)” value (CIA rats [1]; [6]) was 5.52 ± 0.68 %. The CD3% [2] was 37.4 ± 10.52%, the CD4% [2] was 19.77 ± 6.05% and the CD8% [2] was 17.29 ± 7.09%. It also gave an IFN-γ [2] of 2.47 ± 0.36 pg/mL, an IL-2 [2] of 3.69 ± 3.03 pg/mL and an IL-4 [2] of 1.96 ± 1.26 pg/mL. The TNF-α [2] was 5.13 ± 1.83 pg/mL, the CD3% [3] was 63.37 ± 16.35% and the CD4% [3] was 27.33 ± 6.66%. It also gave a CD8% [3] of 21.74 ± 4.37%, an IFN-γ [3] of 5.09 ± 0.52 pg/mL and an IL-2 [3] of 4.62 ± 0.86 pg/mL. The IL-4 [3] was 2.12 ± 0.42 pg/mL, the TNF-α [3] was 2.42 ± 0.51 pg/mL and the “inflammation score during drug discontinuation compared with that at the time of drug discontinuation” value (CIA rats [4]; 21 days of observation after stopping at day 21) was “could maintain the therapeutic effect”. The “Pathological score during 21 days of drug discontinuation” value (CIA rats [4]; HE staining of ankle joint, score 0-4) was 1.93 ± 0.58, the “AUC, during drug discontinuation (day 22-42)” value (CIA rats [4]; inflammation score AUC after stopping administration at day 21) was 42.86 ± 31.21 and the “Incidence of infection in rats” value (CIA rats [4]; rat, in vivo) was 0%. For the same sequence, the “Observation on the daily state of rats” value (CIA rats [4]; rat, in vivo) was “No”, the “Observation on the daily condition of rats” value ([5]; during administration) was “No abnormality” and the Tuberculosis recurrence rate ([5]; peptides 0.2 mmol, adalimumab 1 mg/kg, 21 days) was 0%. The “Inflammation score and area under the time curve (AUC)” value ([5]; peptides 0.2 mmol, adalimumab 1 mg/kg, tail i.v. once every other day for 21 days) was 48.03 ± 31.91 and the “Culture of MTB from lungs and spleens of rats at sacrifice” value ([5]; sacrifice on day 22, peptides 0.2 mmol, adalimumab 1 mg/kg) was “Negative”.
